pIC50: −log10 of the molar value. Where a name gives a salt, the structure may show the parent alone. Read-outs that look alike come from different tables or passages of the source.
Legend:
[1] = Pharmacokinetic assay, oral administration; type: in vivo; details: rat, male SD rats, p.o. 5 mg/kg, plasma, formulation differs per row
Method: Test 5 Pharmacokinetic Assay
Male SD rats, oral administration (intragastric administration), 3 in each group. Animals administered by gavage were fasted overnight before the experiment, and the fasting time was from at least 12 hours before administration to 4 hours after administration. The blood was collected using the orbital vein. Time of blood collection by oral administration: 15 min, 30 min, 1 h, 2 h, 4 h, 7 h, 24 h. The blood collection volume was 300 uL, and after anticoagulation with 2.0% EDTA, the blood was centrifuged at 4000 rpm for 5 min, and the blood plasma was taken for about 100 uL, and placed in −20° C. for examination. The plasma sample was analyzed using liquid chromatography tandem mass spectrometry (LC-MS/MS). Plasma concentration-time data for individual animals were analyzed using WinNonlin (V4.1, Pharsight) software with a non-compartmental model and the pharmacokinetic parameters of the test compounds were calculated.

EGFR L858R/T790M/C797S = EGFR L858R/T790M/C797S (Homo sapiens, UniProt P00533, C797S/L858R/T790M); experiment: Kinase assay (mobility shift), EGFR L858R/T790M/C797S; type: biochemical; details: numeric values
EGFR L858R/T790M/C797S, sequence (P00533 25-1210 T790M/C797S/L858R): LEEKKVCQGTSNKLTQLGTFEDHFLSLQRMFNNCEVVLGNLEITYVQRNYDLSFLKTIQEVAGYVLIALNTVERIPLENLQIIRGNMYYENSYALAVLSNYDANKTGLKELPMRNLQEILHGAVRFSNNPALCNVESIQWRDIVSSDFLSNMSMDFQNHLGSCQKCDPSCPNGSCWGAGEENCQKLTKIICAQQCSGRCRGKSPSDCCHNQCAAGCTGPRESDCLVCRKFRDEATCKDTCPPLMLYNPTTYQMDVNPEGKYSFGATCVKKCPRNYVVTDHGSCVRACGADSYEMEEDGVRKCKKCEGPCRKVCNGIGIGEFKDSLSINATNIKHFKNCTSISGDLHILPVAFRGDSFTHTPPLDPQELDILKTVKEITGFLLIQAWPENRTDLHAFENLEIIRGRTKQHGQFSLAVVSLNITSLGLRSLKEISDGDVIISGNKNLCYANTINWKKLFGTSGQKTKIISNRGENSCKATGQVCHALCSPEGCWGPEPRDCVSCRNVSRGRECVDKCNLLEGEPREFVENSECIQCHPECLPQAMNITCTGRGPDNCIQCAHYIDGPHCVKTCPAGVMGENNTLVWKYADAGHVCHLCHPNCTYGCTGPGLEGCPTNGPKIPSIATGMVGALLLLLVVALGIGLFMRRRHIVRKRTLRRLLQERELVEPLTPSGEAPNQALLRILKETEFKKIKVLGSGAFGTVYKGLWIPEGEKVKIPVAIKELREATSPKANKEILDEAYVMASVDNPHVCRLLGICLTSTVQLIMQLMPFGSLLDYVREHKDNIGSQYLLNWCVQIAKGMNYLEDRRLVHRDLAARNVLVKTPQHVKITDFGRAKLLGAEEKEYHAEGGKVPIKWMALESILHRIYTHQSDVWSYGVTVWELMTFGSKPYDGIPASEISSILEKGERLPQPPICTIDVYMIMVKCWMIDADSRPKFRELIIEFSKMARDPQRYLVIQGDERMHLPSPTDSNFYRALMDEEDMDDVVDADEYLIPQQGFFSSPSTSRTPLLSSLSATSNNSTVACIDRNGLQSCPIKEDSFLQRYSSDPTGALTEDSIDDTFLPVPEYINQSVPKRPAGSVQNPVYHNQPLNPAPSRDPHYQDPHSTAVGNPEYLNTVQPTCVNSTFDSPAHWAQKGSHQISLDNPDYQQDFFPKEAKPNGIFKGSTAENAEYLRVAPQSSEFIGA
Method: [Worded in the source for another variant; this variant is reported under the same test.] Test 1 Kinase Assay for EGFR Del19/T790M/C797S and EGFR Wildtype
Enzyme reaction protocol are as follows:
1. Preparing 1* Kinase buffer as followed.
2. Preparing Compound Concentration Gradient: Compounds were tested at a concentration of 300 nM, diluted to 100-fold final concentration in 100% DMSO solution in 96-well plates, and compounds were diluted 3 times with Precision, 10 concentrations. Each concentration of the compound was then further diluted to a 5-fold final concentration of the intermediate dilution solution using 1* Kinase buffer.
3.5 μL of each of the prepared intermediate dilution compounds was separately added to the compound wells of the 384-well plate, and each concentration was tested for duplicate wells; 5 μL of 5% DMSO was added to the negative control wells and the positive control wells, respectively.
4. 2.5-fold final concentration of the kinase solution was prepared using 1*Kinase buffer.
5. Add 10 μL of 2.5-fold final concentration of kinase solution to the compound well and positive control well; add 10 μL of 1*Kinase buffer to the negative control well.
6. Centrifuge at 1000 rpm for 30 seconds, shake the reaction plate and incubate for 10 minutes at room temperature.
7. A mixed solution of 2.5 times the final concentration of ATP and Kinase substrate (5-FAM-EEPLYWSFPAKKK-CONH2) was prepared using 1*Kinase buffer.
8. 10 μL of a 2.5-fold final concentration of a mixed solution of ATP and a substrate was added to initiate the reaction.
9. Centrifuge the 384-well plate at 1000 rpm for 30 seconds, mix by shaking, and incubate at room temperature for the corresponding time.
10. Add 30 μL of the stop solution to stop the kinase reaction, centrifuge at 1000 rpm for 30 seconds, and mix by shaking.
11. Read the conversion rate with Caliper EZ Reader.
Convert conversion values to inhibition values:
Percent inhibition 32 (max-conversion)/(max-min)*100.
“max” stands for the mean value of the positive control well ratio; “min” stands for the mean value of the negative control well.
Fit the data in log(inhibitor) vs. response Variable slope of GraphPad Prism 5 to obtain IC50 values.
Equation used is: Y=Bottom+(Top-Bottom)/(1+(IC50/X)^HillSlope)

A431 (WT) = experiment: A431 cells proliferation assay (CellTiter Glo); type: cell-based; details: Homo sapiens, A-431; cell proliferation, 72 h
Method: Test 4 A431 Cells Proliferation Assay
DMEM and 10% FBS and 1% PS.
(§1) a) The medium was preheated in a 37° C. water bath in advance.
(§2) b) Remove the cryogenic vials from the liquid nitrogen tank, quickly put it into a 37° C. water bath, and completely melt it in 1 min.
(§3) c) Transfer the cell suspension to a 15 mL centrifuge tube containing 8 mL medium, centrifuge 1000 rpm, 5 min.
(§4) d) Discard the supernatant, resuspend the cells in 1 mL medium, and transfer to a 75 cm^2 flask containing 15 mL medium, culture the cells in an incubator at 37° C., 5% CO2.
(§5) b) Collect cell to a 15 mL centrifuged tube, centrifuge at 1000 rpm for 5 min. Discard the supernatant, count, and make the cell density at 1×10^4 cells/mL, then place it in a 37° C., 5% CO2 incubator.
a) The test compound (20 mM stock solution) was diluted to 2 mM with 100% DMSO as starting concentration then 3-fold serial diluted with “9+0” concentrations. in a 96-well dilution plate (Cat # P-05525, Labcyte);
b) The above compound solution was diluted 1:40 times with culture medium to prepare a 5 fold working solution;
(§6) a) Take cells in log phase growth, centrifuge at 1000 rpm for 5 min, then resuspend the cells with culture medium, then count cells;
b) Cells were seeded to 96-well cell culture plate with density at 5000 cells/well;
a) Compounds prepared at step 2 were added to cell plate with 40 μL per well, the final concentrations were 10000, 3333,1111.1, 370.4, 123.5, 41.2, 13.7, 4.6, 1.5 and 0 nM, and the final concentration of DMSO was 0.5%. The blank control well was a culture medium (0.5% DMSO);
(§7) b) The cells were incubated for an additional 72 h in the incubator.
a) Remove the 96-well cell culture plate and add 60 μl of CTG reagent (CellTiter Glo kit, promega, Cat # G7573).
(§8) b) Plate was shaked for 2 min and then let it cool for 10 min at room temperature.
c) The Luminescence signal value was read using a PerkinElmer reader.
Experimental Data Analysis
(§9) Data were analyzed using GraphPad Prism 6.0 software to obtain a fitted curve of compound activity.
(§10) Fit the Compound IC50 from non-linear regression equation:
Y=Bottom+(Top-Bottom)/(1+10((LogIC50-X)×HillSlope));
(§11) X: The log of the concentration of the compound; Y: Luminescence value.
The cells proliferation assay results are expressed with IC50, shown as Table 3.

Ba/F3-L858R/T790M/C797S = Ba/F3-L858R/T790M/C797S (Homo sapiens, UniProt P00533, T790M/C797S/L858R, cells depend on it); experiment: Ba/F3-L858R/T790M/C797S cells proliferation assay (CellTiter Glo); type: cell-based; details: cell proliferation, 72 h, read-out: Ba/F3-L858R/T790M/C797S IC50
Ba/F3-L858R/T790M/C797S, sequence (P00533 whole entry T790M/C797S/L858R): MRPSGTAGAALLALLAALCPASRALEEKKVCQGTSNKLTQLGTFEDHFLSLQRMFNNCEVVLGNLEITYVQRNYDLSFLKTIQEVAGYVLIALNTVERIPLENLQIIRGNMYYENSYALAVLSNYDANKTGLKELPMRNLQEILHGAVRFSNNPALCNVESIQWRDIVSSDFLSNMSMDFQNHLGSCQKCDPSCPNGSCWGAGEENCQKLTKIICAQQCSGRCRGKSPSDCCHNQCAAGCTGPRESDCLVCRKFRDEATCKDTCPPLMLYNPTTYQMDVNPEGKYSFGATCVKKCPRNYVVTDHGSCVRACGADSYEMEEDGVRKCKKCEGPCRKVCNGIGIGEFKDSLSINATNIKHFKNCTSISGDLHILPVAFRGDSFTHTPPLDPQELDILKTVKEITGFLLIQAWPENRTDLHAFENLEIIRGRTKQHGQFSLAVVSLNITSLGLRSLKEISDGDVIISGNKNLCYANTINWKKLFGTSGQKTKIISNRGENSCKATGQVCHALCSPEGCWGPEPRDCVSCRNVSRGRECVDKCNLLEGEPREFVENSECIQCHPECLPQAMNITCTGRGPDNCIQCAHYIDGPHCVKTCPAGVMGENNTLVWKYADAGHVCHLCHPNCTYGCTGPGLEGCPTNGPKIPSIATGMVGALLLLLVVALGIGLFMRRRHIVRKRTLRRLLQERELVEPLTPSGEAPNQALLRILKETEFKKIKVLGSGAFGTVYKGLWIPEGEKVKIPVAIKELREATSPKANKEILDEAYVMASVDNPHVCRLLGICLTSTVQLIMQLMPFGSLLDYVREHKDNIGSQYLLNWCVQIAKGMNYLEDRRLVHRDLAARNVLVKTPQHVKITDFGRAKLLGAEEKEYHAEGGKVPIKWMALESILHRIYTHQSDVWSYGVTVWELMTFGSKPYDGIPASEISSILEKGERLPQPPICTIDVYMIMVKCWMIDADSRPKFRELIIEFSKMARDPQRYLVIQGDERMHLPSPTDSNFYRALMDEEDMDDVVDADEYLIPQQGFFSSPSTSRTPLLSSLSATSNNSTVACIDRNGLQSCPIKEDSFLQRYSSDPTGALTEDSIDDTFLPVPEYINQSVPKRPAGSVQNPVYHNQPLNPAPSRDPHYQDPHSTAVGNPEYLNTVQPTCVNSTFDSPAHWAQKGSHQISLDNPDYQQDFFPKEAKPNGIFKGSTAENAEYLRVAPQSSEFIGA
Method: (§12) a) The medium was preheated in a 37°0 C. water bath in advance.
as §2, §3, §4, §1, §5
(§13) a) The test compound (20 mM stock solution) was diluted to 200uM with 100% DMSO as starting concentration then 3-fold serial diluted with “9+0” concentrations. in a 96-well dilution plate (Cat # P-05525, Labcyte);
(§14) b) The above compound solution was diluted 1:20 times with culture medium to prepare a 10 fold working solution;
as §6
(§15) b) Cells were seeded to 96-well cell culture plate with density at 2000 cells/well;
(§16) a) Compounds prepared at step 2 were added to cell plate with 15 μL per well, the final concentrations were 1000,333, 111.1, 37,12.3, 4.1, 1.4, 0.5, 0.2 and 0 nM, and the final concentration of DMSO was 0.5%. The blank control well was a culture medium (0.5% DMSO);
as §7
(§17) a) Remove the 96-well cell culture plate and add 50 μl of CTG reagent (CellTiter Glo kit, promega, Cat # G7573).
as §8
(§18) c) The Luminescence signal value was read using a PerkinElmer reader. Experimental data analysis
as §9, §10
(§19) Y=Bottom+(Top-Bottom)/(1+10((LogIC50-X)×Hill Slope));
as §11
(§20) The cells proliferation assay results are expressed with IC50, shown as Table 2.

Ba/F3-Del19/T790M/C797S = Ba/F3-Del19/T790M/C797S (Homo sapiens, UniProt P00533, T790M/C797S, cells depend on it, form not given); experiment: Ba/F3-Del19/T790M/C797S cells proliferation assay (CellTiter Glo); type: cell-based; details: cell proliferation, 72 h, read-out: Ba/F3-Del19/T790M/C797S IC50
Ba/F3-Del19/T790M/C797S, sequence (P00533 with tags, fused parts or gaps DEL746-750/T790M/C797S, form open): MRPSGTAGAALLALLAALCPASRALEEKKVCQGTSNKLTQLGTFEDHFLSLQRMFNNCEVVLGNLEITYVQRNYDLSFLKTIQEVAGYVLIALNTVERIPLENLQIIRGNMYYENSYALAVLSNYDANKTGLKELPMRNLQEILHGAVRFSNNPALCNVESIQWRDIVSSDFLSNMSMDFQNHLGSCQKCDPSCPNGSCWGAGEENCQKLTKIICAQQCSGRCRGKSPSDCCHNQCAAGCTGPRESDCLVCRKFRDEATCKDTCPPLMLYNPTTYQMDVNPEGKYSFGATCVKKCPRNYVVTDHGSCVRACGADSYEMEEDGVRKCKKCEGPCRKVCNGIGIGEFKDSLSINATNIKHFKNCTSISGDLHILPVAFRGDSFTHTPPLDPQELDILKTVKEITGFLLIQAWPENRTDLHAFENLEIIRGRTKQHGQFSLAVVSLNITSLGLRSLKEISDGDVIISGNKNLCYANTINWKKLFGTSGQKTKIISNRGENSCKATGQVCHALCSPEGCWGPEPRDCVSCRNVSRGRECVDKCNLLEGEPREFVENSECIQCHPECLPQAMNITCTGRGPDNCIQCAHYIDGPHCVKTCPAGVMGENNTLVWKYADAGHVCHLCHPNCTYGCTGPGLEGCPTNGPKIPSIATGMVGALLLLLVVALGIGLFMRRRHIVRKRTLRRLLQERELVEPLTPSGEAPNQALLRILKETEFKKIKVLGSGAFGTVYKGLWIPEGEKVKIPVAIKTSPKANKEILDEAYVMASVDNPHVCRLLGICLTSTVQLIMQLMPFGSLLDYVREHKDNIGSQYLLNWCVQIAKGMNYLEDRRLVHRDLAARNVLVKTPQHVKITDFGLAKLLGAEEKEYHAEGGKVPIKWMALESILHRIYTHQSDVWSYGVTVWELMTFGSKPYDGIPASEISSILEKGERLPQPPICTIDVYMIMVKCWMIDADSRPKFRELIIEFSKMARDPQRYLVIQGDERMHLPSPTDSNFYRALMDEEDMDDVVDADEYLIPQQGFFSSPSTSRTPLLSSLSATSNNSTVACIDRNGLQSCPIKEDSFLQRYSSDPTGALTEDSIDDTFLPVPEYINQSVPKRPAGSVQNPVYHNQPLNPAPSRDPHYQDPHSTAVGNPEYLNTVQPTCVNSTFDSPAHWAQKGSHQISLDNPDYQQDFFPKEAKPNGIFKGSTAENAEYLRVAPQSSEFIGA
Method: as §12, §2, §3, §4, §1, §5, §13, §14, §6, §15, §16, §7, §17, §8, §18, §9, §10, §19, §11, §20

SMILES	pIC50 (EGFR L858R/T790M/C797S)	pIC50 (A431 (WT))	GI50 (Ba/F3-Del19/T790M/C797S; numeric values) [nM]	GI50 (Ba/F3-L858R/T790M/C797S; class symbols) [nM]	GI50 (Ba/F3-Del19/T790M/C797S; class symbols) [nM]	AUC(0-t) [1] [ng·h/mL]	Cmax [1] [ng/mL]	Tmax [1] [h]	half-life [1] [min]	GI50 (Ba/F3-L858R/T790M/C797S; numeric values) [nM]
Cc1cc(Nc2ncc(Cl)c(Nc3ccccc3P(C)(C)=O)n2)ccc1N1CCC2(CC1)CC(N(C)C)C2 [Example 15, (2-((5-chloro-2-((4-(2-(dimethylamino)-7-azaspiro[3.5]nonan-7-yl)-3-methylphenyl)amino)pyrimidin-4-yl)amino)phenyl)dimethylphosphine oxide]	9.15	7.56	15.5			6940	575	6	263	17
CP(C)(=O)c1ccccc1Nc1nc(Nc2ccc(N3CCC4(CC3)CC(N)C4)cc2)ncc1Cl [Example 16, (2-((2-((4-(2-amino-7-azaspiro[3.5]nonan-7-yl)phenyl)amino)-5-chloropyrimidin-4-yl)amino)phenyl)dimethylphosphine oxide hydrochloride]			8							6.9
CCN1CC2(C1)CN(c1ccc(Nc3ncc(Cl)c(Nc4ccccc4P(C)(C)=O)n3)cc1C)C2 [Comparative compound B, (2-((5-chloro-2-((4-(6-ethyl-2,6-diazaspiro[3.3]heptan-2-yl)-3-methylphenyl)amino)pyrimidin-4-yl)amino)phenyl)dimethylphosphine oxide, reference compound]						202	67.2	2.75	245	
CP(C)(=O)c1ccccc1Nc1ccnc(Nc2ccc(N3CCC4(CC3)CC(N)C4)c(Cl)c2)n1 [Example 9, (2-((2-((4-(2-amino-7-azaspiro[3.5]nonan-7-yl)-3-chlorophenyl)amino)pyrimidin-4-yl)amino)phenyl)dimethylphosphine oxide]	7.96			> 50	> 50					
CNC1CC2(CCN(c3ccc(Nc4ncc(Cl)c(Nc5ccccc5P(C)(C)=O)n4)cc3Cl)CC2)C1 [Example 20, (2-((5-chloro-2-((3-chloro-4-(2-(methylamino)-7-azaspiro[3.5]nonan-7-yl)phenyl)amino)pyrimidin-4-yl)amino)phenyl)dimethylphosphine oxide]	8.64			10 to 50	10 to 50					
CP(C)(=O)c1ccccc1Nc1nc(Nc2ccc(N3CCC4(CC3)CC(N)C4)c(C(F)(F)F)c2)ncc1Cl [Example 18, (2-((2-((4-(2-amino-7-azaspiro[3.5]nonan-7-yl)-3-(trifluoromethyl)phenyl)amino)-5-chloropyrimidin-4-yl)amino)phenyl)dimethylphosphine oxide]	7.80			10 to 50	10 to 50					
CN(C)C1CC2(CCN(c3ccc(Nc4nccc(Nc5ccccc5P(C)(C)=O)n4)cc3Cl)CC2)C1 [Example 7, (2-((2-((3-chloro-4-(2-(dimethylamino)-7-azaspiro[3.5]nonan-7-yl)phenyl)amino)pyrimidin-4-yl)amino)phenyl)dimethylphosphine oxide]	8.11	6.47		> 50	> 50					

The next lines start with results.

pIC50 (EGFR L858R/T790M/C797S)	pIC50 (A431 (WT))	GI50 (Ba/F3-Del19/T790M/C797S; numeric values) [nM]	GI50 (Ba/F3-L858R/T790M/C797S; class symbols) [nM]	GI50 (Ba/F3-Del19/T790M/C797S; class symbols) [nM]	SMILES	AUC(0-t) [1] [ng·h/mL]	Cmax [1] [ng/mL]	Tmax [1] [h]	half-life [1] [min]	GI50 (Ba/F3-L858R/T790M/C797S; numeric values) [nM]
8.82			10 to 50	10 to 50	CN(C)C1CCC2(CC1)CN(c1ccc(Nc3ncc(Cl)c(Nc4ccccc4P(C)(C)=O)n3)cc1C1CC1)C2 [Example 5, (2-((5-chloro-2-((3-cyclopropyl-4-(7-(dimethylamino)-2-azaspiro[3.5]nonan-2-yl)phenyl)amino)pyrimidin-4-yl)amino)phenyl)dimethylphosphine oxide]					
8.59		26.3	10 to 50		CP(C)(=O)c1ccccc1Nc1nc(Nc2ccc(N3CC4(CCC(N)CC4)C3)c(Cl)c2)ncc1Cl [Example 11, (2-((2-((4-(7-amino-2-azaspiro[3.5]nonan-2-yl)-3-chlorophenyl)amino)-5-chloropyrimidin-4-yl)amino)phenyl)dimethylphosphine oxide]					
8.96	7.52		10 to 50	≤ 10	CN(C)C1CC2(CCN(c3ccc(Nc4ncc(Cl)c(Nc5ccccc5P(C)(C)=O)n4)cc3F)CC2)C1 [Example 30, (2-((5-chloro-2-((4-(2-(dimethylamino)-7-azaspiro[3.5]nonan-7-yl)-3-fluorophenyl)amino)pyrimidin-4-yl)amino)phenyl)dimethylphosphine oxide]					
8.55			10 to 50	10 to 50	Cc1cc(Nc2ncc(Cl)c(Nc3ccccc3P(C)(C)=O)n2)ccc1N1CC2(CCC(N)CC2)C1 [Example 3, (2-((2-((4-(7-amino-2-azaspiro[3.5]nonan-2-yl)-3-methylphenyl)amino)-5-chloropyrimidin-4-yl)amino)phenyl)dimethylphosphine oxide]					
